Experiments:
Assay type in all cases: cell-based, human
HepG2 cells = test: Mortality from simulated ischemia (LDH release)
Experimental: After heat treatment, cultures were incubated overnight at 37° C. When trypan blue exclusion was used as the criterion for cell survival, cells (unattached and attached) were harvested, and trypan blue-excluding cells were counted in a hemocytometer. In some experiments, cell killing was estimated by the lactate dehydrogenase (LDH) release assay, using the LDH Assay Kit from Sigma Corp. (St. Louis, Mo.). To quantify detachment from the substratum, cultures were washed three times with prewarmed DMEM, and the number of cells remaining on dishes were determined using a hemocytometer. […] Ischemic conditions were simulated as described previously (Mestril, R. et al., J. Clin. Invest., 93:759–767 (1994)). Briefly, cells were placed in slightly hypotonic HBSS (1.3 mM CaCl2, 5 mM KCl, 0.3 mM KH2PO4, 0.5 mM MgCl2, 0.4 mM MgSO4, 69 mM NaCl, 4 mM NaHCO3, 0.3 mM Na2HPO4) without glucose or serum, and made hypoxic for 4–6 hours at 37° C. Control cells were left under normoxic conditions for the same period of time. Hypoxia was achieved by using an air-tight jar from which oxygen was removed by displacement with argon. After 10 minutes of gas exchange, the oxygen concentration was <0.2%. Hypoxia was maintained using the oxygen-consuming GasPak System from BBL Microbiology Systems (Cockeysville, Md.).

HeLa-CAT cells [1] = test: Recovery of translation after heat shock (3H-leucine pulse-labeling); settings: contribution of untransfected cells subtracted
Experimental: In a typical experiment, parallel HeLa-CAT cultures in 60 mm dishes (more than 70% confluent) were transfected with 0.75 ug of EGFP construct and 2.25 ug of HSF1(+) or HSF1(−) construct and 15 ul Lipofectamine™. Before exposing the cultures to heat shock about 36 hours post transfection, cells were replated (to achieve about 70% confluence). Note that in some experiments, HSF1(+) was delivered by infection with an adenoviral vector rather than by transfection. Cultures were exposed to a 42° C./1 hour heat shock and then returned to 37° C. Rates of protein synthesis before, during, and at different times after a subsequent, more severe heat shock were determined by pulse-labeling of cells with ^3H-leucine. For labeling, cultures were washed two times with prewarmed PBS, and one ml of labeling medium (leucine-free DMEM with 2% FBS and 65 uCi of ^3H-leucine (179 Ci/mmolc)) was added. […] Relative rates of protein synthesis were calculated as cpm/ug protein. […]
To find out whether HSF1(−) could function as a negatively acting factor, HeLa-CAT cells containing integrated copies of an hsp70B-chloramphenicol acetyltransferase (CAT) gene were co-transfected with an HSF1(−) and an EFGP-expressing construct. […] Rates of protein synthesis were assessed by pulse-labeling cells with ^3H-leucine. […]

HeLa-CAT cells [2] = test: Cell survival after heat shock, count of β-galactosidase-positive cells; settings: heat shock 48° C./10 minutes; p<0.05
Experimental: To also assess the effect of expression of HSF1(−) on stress-induced cell killing, cultures were transfected with a beta-galactosidase gene or co-transfected with the beta-galactosidase gene and the HSF1(−) construct.
Transfected cultures were subjected to a severe heat shock (48° C./10 minutes; about 75% cell survival) or left untreated, and β-galactosidase-positive cells were counted the following day. Untreated, singly and doubly transfected cultures contained similar number of β-galactosidase-expressing cells. In the heat-shocked cultures, the presence of HSF1(−) increased cell killing by about 60% (p<0.05). Thus, the increase in Hsp levels occurring as a consequence of a stressful event has a significant, immediate protective effect.

Substance | decrease of mortality from simulated ischemia (HepG2 cells) | corrected rate of protein synthesis one hour after heat shock (HeLa-CAT cells [1]; first experiment) | corrected rate of protein synthesis one hour after heat shock (HeLa-CAT cells [1]; second experiment) [%] | increase in cell killing (HeLa-CAT cells [2])
human HSF1d202–316 [HSF1(+)] | more than 50% | – | – | –
human HSF1d453–523 [HSF1(−)] | – | about 5% | ~24 | about 60%

Source: patent US7053052B2, “Therapies involving mutated heat shock transcription factor” (priority 1997, dated 2006)
